Results from patent US10729718B2, “Substances containing AuCs and preparation method and use thereof” (Shenzhen Profound-View Pharma Tech Co., Ltd, priority 2016, dated 2020).

What was measured:
α-syn = biological target: T1, α-syn (Homo sapiens, UniProt P37840); assay: In vitro α-syn aggregation kinetics (ThT fluorescent labeling method); format: biochemical; conditions: ligand only (L-NIBC 1.0 and 10.0 ppm), 35 μM α-syn, 37° C.
T1 construct: purchased Bachem Corp
Description: Thioflavin T (abbreviation: ThT) is a dye for dyeing amyloid fibers specifically. […] When it encounters amyloid polypeptide or protein with a fiber structure, it will immediately couple with the amyloid polypeptides or proteins and its fluorescence intensity will increase exponentially. For this reason, ThT is widely used as markers to monitor amyloidosis of peptides or proteins. This embodiment utilizes ThT fluorescent labeling method to monitor the kinetics process of fibrosis aggregation of α-syn with the existence of AuCs. The specific experiment method was as follows:
Pretreatment of α-syn monomers: Freeze-dried powder (Bachem Corp.) of α-syn was dissolved in HFIP to obtain a 1 g/L α-syn solution. The solution was incubated at room temperature for 2-4 h after sealing, then blowed to dry HFIP by high-purity nitrogen in a fume hood. […]
Sample preparation and detection: Ligand-modified AuCs in different concentrations listed in Table 1 were added to 35 μM α-syn PBS solutions respectively, and incubated continuously in a 96-well plate at 37° C., by ThT fluorescent labeling method, and were monitored the fluorescence intensity by microplate reader once every 10 minutes. The kinetic process of α-syn aggregation was characterized through the change of fluorescence intensity of ThT. […]

Aβ(1-40) [1] = biological target: T2, Aβ(1-40) (Homo sapiens, UniProt P05067); assay: In vitro Aβ aggregation kinetic experiment (ThT fluorescent labeling method); format: biochemical; conditions: ThT fluorescence, 20 μM Aβ(1-40), 37° C., up to 20.0 ppm (L-NIBC 1.0 and 10.0 ppm)
T2 construct: Freeze-dried powder of amyloid polypeptide Aβ(1-40) (Invitrogen Corp.); purchased Invitrogen Corp
T2 sequence (P05067 672-711 limits assumed): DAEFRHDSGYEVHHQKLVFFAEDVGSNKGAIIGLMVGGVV
Description: Thioflavin T (abbreviation: ThT) is a dye specifically for dyeing amyloid fibers. […] When it encounters amyloid polypeptides or proteins with a fiber structure, it will immediately couple with the amyloid polypeptides or proteins and its fluorescence intensity will increase exponentially. Just because of this property, ThT is widely used as a marker to monitor amyloidosis of peptides or proteins. The fibrosis process of Aβ(1-40) is also a nucleation-controlled polymerization process. Therefore, the growth curve of Aβ(1-40) fiber measured by ThT fluorescent labeling method is mainly divided into three stages: Initial stage, growth stage and platform stage. […] All the Aβ(1-40) PBS solutions for the experiments were prepared freshly. […] The samples were incubated continuously in a 96-well plate at 37° C. by ThT fluorescent labeling method, and monitored the fluorescence intensity by microplate reader once every 10 minutes.

Aβ(1-40) [2] = biological target: T2, Aβ(1-40); assay: AFM topography of Aβ(1-40) after coincubation for 48 h; format: biochemical; conditions: coincubated with Aβ(1-40) for 48 h
Experimental: Panel A is the AFM topography after Aβ(1-40) was incubated alone for 48 h. Panel B is an AFM topography after Aβ(1-40) was coincubated with L-NIBC for 48 h. Panel C and panel D are AFM topographies after Aβ(1-40) was coincubated with gold nanoparticles with an average particle size of 6.0 nm and 3.6 nm respectively (modified with L-NIBC) for 48 h. And panel E is an AFM topography after Aβ(1-40) was coincubated with AuCs in an average particle size of 1.8 nm (modified with L-NIBC) for 48 h.

[3] = system: SH-SY5Y neuroblastoma cell line; assay: Aβ induced AD cell model, cell viability by CCK-8 method; format: cell-based; conditions: 0.01-20 ppm (L-NIBC 20 ppm); 20 μM Aβ(1-40), 24 h
Experimental: The cell viability was used as an index in the experiment of this embodiment. […] The cells used in the experiment were SH-SY5Y neuroblastoma cell line. […] Specific method:
1) SH-sy5y cells (cells had passed to the sixth generation) in logarithmic growth phase were diluted with complete medium (MEM+10% FBS+1% penicillin-streptomycin) to get a cell suspension in a density of 5×10^4/mL. The suspension was inoculated 200 μL per well into a 96-well plate, and cultivated in an incubator with 5% CO2 at 37° C. A sample was added when the cells attached to the wells.
2) 100 μL ligand-modified AuCs samples or ligand-modified gold nanoparticles samples, at different particle sizes and at concentrations of 0.04 ppm, 0.4 ppm, 4 ppm, 20 ppm, 40 ppm and 80 ppm respectively, which were dissolved by maintenance medium (MEM+2% FBS+1% penicillin-streptomycin) were added into the incubated suspension obtained from Step 1). After incubating in the incubator for 2 h, 100 μL 80 μM Aβ(1-40) was added, and then the mixture was incubated in the incubator for 24 h. […] The culture medium was removed, maintenance medium (MEM) containing 10% CCK-8 at 100 μL/well was added and was incubated for 4 h, the absorbance of each well at 450 nm was measured to reflect the prevention and treatment effects of ligand-modified AuCs on Aβ(1-40) lesion.

SH-sy5y cells = assay: MPP+ induced PD cell (SH-sy5y) model, Experiment 2, CCK-8; format: cell-based; conditions: 1 mM MPP^+ and ligand 20 ppm, 24 h; model control 65.1±4.0%

## CC(C)C(=O)N[C@@H](CS)C(=O)O [L-NIBC, N-isobutyryl-L-cysteine]
α-syn
  effect on kinetics of α-syn aggregation: did not have an obvious effect
Aβ(1-40) [1]
  effect on Aβ(1-40) amyloidosis / aggregation kinetics: no obvious effect
Aβ(1-40) [2]
  formation of Aβ(1-40) fibers (AFM topography): no obvious effect
[3]
  effect on cell viability of Aβ induced AD cell model: did not improve cell viability
SH-sy5y cells
  cell viability of the ligand control group: 61.5±3.8%
